Like-named read-outs stand apart in the source and are kept apart here. No end group written: not given here.
Experiments:
SP34 = test: Masking capability of potential masks of SP34 (ELISA, BLI); assay type: binding; details: mask and linker fused to SP34 VH and/or VL
Method: Binding of the 19 M-TCEs to both their antigens CEACAM5 and CD3δε was assessed with BLI using ForteBio Red96 as described above.

HT29 cells = test: PBMC co-cultivation assay, M-TCE-induced killing of HT29 cells; assay type: cell-based, human; details: for EC50: HT29 + human PBMC, 72 hours, read-out: Efficacy (EC50); for tumor cell killing efficacy: digested vs undigested, in words; for Digested vs. masked: ratio of EC50 non-digested to MMP9-digested
Method: Five digested and undigested M-TCEs were tested for their tumor cell killing capability in the presence of human PBMC.
A total of 5×10^3 cells in RPMI1640 medium (supplemented with 10% FBS and 2 mM glutamine) of the target cell line (HT29) were seeded in 96-well plates (Day 0). A dilution series of respective antibodies was performed in assay media and added to target cells. On Day 0, a total of 5×10^4 PBMCs were added to each well, and the final reaction volume was adjusted to 200 μl. Percentage viability of target cell was measured by […]. LDH was measured after 72 hours using the Cell Counting Kit-8 (CK04, Dojindo, Japan) according to the manufacturer's recommendations. The results were analyzed as mean and standard deviation (SD) from triplicate wells and plotted as 4-parameter non-linear regression fittings using GraphPad Prism 9 software (GraphPad Software, San Diego, CA, USA).

CD3 on human PBMC = CD3 on human PBMC (human, UniProt P07766 23-207); test: cell-based or functional assay
Sequence of CD3 on human PBMC (P07766 23-207): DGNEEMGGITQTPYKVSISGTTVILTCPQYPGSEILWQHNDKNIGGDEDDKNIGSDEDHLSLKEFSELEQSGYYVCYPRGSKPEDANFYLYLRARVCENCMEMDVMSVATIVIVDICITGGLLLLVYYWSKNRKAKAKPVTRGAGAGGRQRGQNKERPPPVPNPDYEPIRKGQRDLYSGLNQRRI

Molecule | Masking Capability (SP34) | also measured
L6-G3R: M-TCE; QDRNEESSGGGSPLGLSSGGGS-SP34VH, SEQ ID NO 45 | Yes | 
L2-Q1E: M-TCE; EDGNEEGSPLGLGS-SP34VH, SEQ ID NO 19 | No | 
LC-L4-G2E: M-TCE, mask on VL; QEGNEEGSGSPLGLGSGS-SP34VL, SEQ ID NO 27 | Yes | 
L6-G3A: M-TCE; QDANEESSGGGSPLGLSSGGGS-SP34VH, SEQ ID NO 41 | Yes | 
L2-D2I: M-TCE; QIGNEEGSPLGLGS-SP34VH, SEQ ID NO 31 | No | 
L2-Q1H: M-TCE; HDGNEEGSPLGLGS-SP34VH, SEQ ID NO 22 | No | 
L3-WT: M-TCE; QDGNEESGSPLGLSGG-SP34VH, SEQ ID NO 14 | Yes | 
L6-WT: M-TCE; QDGNEESSGGGSPLGLSSGGGS-SP34VH, SEQ ID NO 17 | Yes | 
L2-Q1S: M-TCE; SDGNEEGSPLGLGS-SP34VH, SEQ ID NO 20 | No | 
L2-G3I: M-TCE; QDINEEGSPLGLGS-SP34VH, SEQ ID NO 37 | No | 
L2-Q1V: M-TCE; VDGNEEGSPLGLGS-SP34VH, SEQ ID NO 23 | No | 
L2-D2E: M-TCE; QEGNEEGSPLGLGS-SP34VH, SEQ ID NO 26 | Yes | 
L5-D2E: M-TCE; QEGNEESSGGSPLGLSSGGS-SP34VH, SEQ ID NO 28 | Yes | EC50 (HT29 cells; MMP9-digested): 0.013 nM; EC50 (HT29 cells; Non-digested): 0.418 nM; tumor cell killing efficacy (HT29 cells): higher efficacy in inducing tumor cell killing than their undigested counterparts; Digested vs. masked (HT29 cells): 32×
L7-D2E: M-TCE; QEGNEESSGGSGSPLGLSSGGSGS-SP34VH, SEQ ID NO 30 | Yes | 
L2-D2G: M-TCE; QGGNEEGSPLGLGS-SP34VH, SEQ ID NO 32 | Yes | 
L7-WT: M-TCE; QDGNEESSGGSGSPLGLSSGGSGS-SP34VH, SEQ ID NO 18 | Yes | 
L4-WT: M-TCE; QDGNEEGSGSPLGLGSGS-SP34VH, SEQ ID NO 15 | Yes | 
L5-WT: M-TCE; QDGNEESSGGSPLGLSSGGS-SP34VH, SEQ ID NO 16 | Yes | 

Molecule | Masking Capability (SP34) | also measured
L6-D2E: M-TCE; QEGNEESSGGGSPLGLSSGGGS-SP34VH, SEQ ID NO 29 | Yes | EC50 (HT29 cells; MMP9-digested): 0.01 nM; EC50 (HT29 cells; Non-digested): 0.317 nM; tumor cell killing efficacy (HT29 cells): higher efficacy in inducing tumor cell killing than their undigested counterparts; Digested vs. masked (HT29 cells): 32×
L6-D2G: M-TCE; QGGNEESSGGGSPLGLSSGGGS-SP34VH, SEQ ID NO 35 | Yes | 
L2-Q1Y: M-TCE; YDGNEEGSPLGLGS-SP34VH, SEQ ID NO 21 | No | 
L2-WT: M-TCE; QDGNEEGSPLGLGS-SP34VH, SEQ ID NO 13 | Yes | 
L4-D2G: M-TCE; QGGNEEGSGSPLGLGSGS-SP34VH, SEQ ID NO 33 | Yes | 
L5-G3A: M-TCE; QDANEESSGGSPLGLSSGGS-SP34VH, SEQ ID NO 40 | Yes | 
L0-WT: M-TCE; QDGNEEPLGL-SP34VH, SEQ ID NO 12 | Yes | 
L7-G3A: M-TCE; QDANEESSGGSGSPLGLSSGGSGS-SP34VH, SEQ ID NO 42 | Yes | 
L7-D2G: M-TCE; QGGNEESSGGSGSPLGLSSGGSGS-SP34VH, SEQ ID NO 36 | Yes | EC50 (HT29 cells; MMP9-digested): 0.011 nM; EC50 (HT29 cells; Non-digested): 0.096 nM; tumor cell killing efficacy (HT29 cells): higher efficacy in inducing tumor cell killing than their undigested counterparts; Digested vs. masked (HT29 cells): 9×
L5-D2G: M-TCE; QGGNEESSGGSPLGLSSGGS-SP34VH, SEQ ID NO 34 | Yes | 
L2-D2R: M-TCE; QRGNEEGSPLGLGS-SP34VH, SEQ ID NO 25 | No | 
L2-G3A: M-TCE; QDANEEGSPLGLGS-SP34VH, SEQ ID NO 38 | Yes | 
L4-G3R: M-TCE; QDRNEEGSGSPLGLGSGS-SP34VH, SEQ ID NO 44 | Yes | 
SP34-CEA (bispecific antibody) heavy: EVKLLESGGGLVQPKGSLKLSCAASGFTFNTYAMNWVRQAPGKGLEWVARIRSKYNNYATYYADSVKDRFTISRDDSQSILYLQMNNLKTEDTAMYYCVRHGNFGNSYVSWFAYWGQGTLVTVSS light: QAVVTQESALTTSPGETVTLTCRSSTGAVTTSNYANWVQEKPDHLFTGLIGGTNKRAPGVPARFSGSLIGDKAALTITGAQTEDEAIYFCALWYSNLWVFGGGTKVEIK EVQLVESGGGFVQAGESLTLSCTSSTLTFTPYRMAWYRQAPGKQRDLVADISSGDGRTTNYADFAKGRFTISRDNIKNTVFLRMTNLKPEDTAVYYCNTFVSFVGIARSWGQGTQVTVSSESKYGPPCPPCPAPEAAGGPSVFLFPPKPKDTLMISRTPEVTCVVVDVSQEDPEVQFNWYVDGVEVHNAKTKPREEQFNSTYRVVSVLTVLHQDWLNGKEYKCKVSNKGLPSSIEKTISKAKGQPREPQVCTLPPSQEEMTKNQVSLSCAVKGFYPSDIAVEWESNGQPENNYKTTPPVLDSDGSFFLVSRLTVDKSRWQEGNVFSCSVMHEALHNRFTQKSLSLSL |  | EC50 of M-TCE-induced killing of HT29 cells in the presence of human PBMC (CD3 on human PBMC): 0.001 nM
MMP9-digested L6-D2E (bispecific antibody, not shown: small tags and cut ends) heavy: EVKLLESGGGLVQPKGSLKLSCAASGFTFNTYAMNWVRQAPGKGLEWVARIRSKYNNYATYYADSVKDRFTISRDDSQSILYLQMNNLKTEDTAMYYCVRHGNFGNSYVSWFAYWGQGTLVTVSS light: QAVVTQESALTTSPGETVTLTCRSSTGAVTTSNYANWVQEKPDHLFTGLIGGTNKRAPGVPARFSGSLIGDKAALTITGAQTEDEAIYFCALWYSNLWVFGGGTKVEIK EVQLVESGGGFVQAGESLTLSCTSSTLTFTPYRMAWYRQAPGKQRDLVADISSGDGRTTNYADFAKGRFTISRDNIKNTVFLRMTNLKPEDTAVYYCNTFVSFVGIARSWGQGTQVTVSSESKYGPPCPPCPAPEAAGGPSVFLFPPKPKDTLMISRTPEVTCVVVDVSQEDPEVQFNWYVDGVEVHNAKTKPREEQFNSTYRVVSVLTVLHQDWLNGKEYKCKVSNKGLPSSIEKTISKAKGQPREPQVCTLPPSQEEMTKNQVSLSCAVKGFYPSDIAVEWESNGQPENNYKTTPPVLDSDGSFFLVSRLTVDKSRWQEGNVFSCSVMHEALHNRFTQKSLSLSL |  | EC50 of M-TCE-induced killing of HT29 cells in the presence of human PBMC (CD3 on human PBMC): 0.01 nM
MMP9-digested L7-D2G (bispecific antibody, not shown: small tags and cut ends) heavy: EVKLLESGGGLVQPKGSLKLSCAASGFTFNTYAMNWVRQAPGKGLEWVARIRSKYNNYATYYADSVKDRFTISRDDSQSILYLQMNNLKTEDTAMYYCVRHGNFGNSYVSWFAYWGQGTLVTVSS light: QAVVTQESALTTSPGETVTLTCRSSTGAVTTSNYANWVQEKPDHLFTGLIGGTNKRAPGVPARFSGSLIGDKAALTITGAQTEDEAIYFCALWYSNLWVFGGGTKVEIK EVQLVESGGGFVQAGESLTLSCTSSTLTFTPYRMAWYRQAPGKQRDLVADISSGDGRTTNYADFAKGRFTISRDNIKNTVFLRMTNLKPEDTAVYYCNTFVSFVGIARSWGQGTQVTVSSESKYGPPCPPCPAPEAAGGPSVFLFPPKPKDTLMISRTPEVTCVVVDVSQEDPEVQFNWYVDGVEVHNAKTKPREEQFNSTYRVVSVLTVLHQDWLNGKEYKCKVSNKGLPSSIEKTISKAKGQPREPQVCTLPPSQEEMTKNQVSLSCAVKGFYPSDIAVEWESNGQPENNYKTTPPVLDSDGSFFLVSRLTVDKSRWQEGNVFSCSVMHEALHNRFTQKSLSLSL |  | EC50 of M-TCE-induced killing of HT29 cells in the presence of human PBMC (CD3 on human PBMC): 0.011 nM
L4-D2E (bispecific antibody) heavy: QEGNEEGSGSPLGLGSGSEVKLLESGGGLVQPKGSLKLSCAASGFTFNTYAMNWVRQAPGKGLEWVARIRSKYNNYATYYADSVKDRFTISRDDSQSILYLQMNNLKTEDTAMYYCVRHGNFGNSYVSWFAYWGQGTLVTVSS light: QAVVTQESALTTSPGETVTLTCRSSTGAVTTSNYANWVQEKPDHLFTGLIGGTNKRAPGVPARFSGSLIGDKAALTITGAQTEDEAIYFCALWYSNLWVFGGGTKVEIK EVQLVESGGGFVQAGESLTLSCTSSTLTFTPYRMAWYRQAPGKQRDLVADISSGDGRTTNYADFAKGRFTISRDNIKNTVFLRMTNLKPEDTAVYYCNTFVSFVGIARSWGQGTQVTVSSESKYGPPCPPCPAPEAAGGPSVFLFPPKPKDTLMISRTPEVTCVVVDVSQEDPEVQFNWYVDGVEVHNAKTKPREEQFNSTYRVVSVLTVLHQDWLNGKEYKCKVSNKGLPSSIEKTISKAKGQPREPQVCTLPPSQEEMTKNQVSLSCAVKGFYPSDIAVEWESNGQPENNYKTTPPVLDSDGSFFLVSRLTVDKSRWQEGNVFSCSVMHEALHNRFTQKSLSLSL |  | Digested vs. masked (ratio of killing EC50) (CD3 on human PBMC): 59 fold; EC50 of M-TCE-induced killing of HT29 cells in the presence of human PBMC (CD3 on human PBMC): 0.65 nM
